Patent US20060252807A1, “Novel ortho-terphenyl inhibitors of p38 kinase and methods of treating inflammatory disorders” (Kalypsys, Inc., priority 2005, published 2006)

These compounds were tested against T1, active p38 alpha enzyme (Upstate Biotechnology) (Homo sapiens, UniProt Q16539) (assay: p38α biochemical assay (ATP turnover, luminescent detection, Cambrex PKlight)). Settings: p38α biochemical assay, Table 1 Biological Activity.
T1 construct: purchased Upstate Biotechnology
Description: The p38α biochemical assay employed is based on measurement of total ATP turnover following enzyme incubation with substrate in the presence of ATP with the use of a luminescent detection reagent (Cambrex PKlight). The assays were performed in 1536-well white opaque plates.
The final volume was 7.5005 μL as prepared prepared from the addition of 5 ul of kinase reaction (p38 alpah+MapkapK2+ATP) with 0.0005 μL compound dissolved in DMSO, and 2.5 ul of the detection reagent. Assay buffer contains the following reagents to give final concentration in the assay: 200 mM Tris, 100 mM MgCl2, 1.5 mM EGTA, 4 mM CaCl2, 20 mM MOPS, 1 mM EDTA, 1% glycerol, 0.1% B-Mecaptoethanol, and 1 mg/ml BSA. Test compounds are pinned using proprietary pintool technology (Kalypsys, Inc) and delivered as […] amounts into the 5 ul mixture of active p38 alpha enzyme (Upstate Biotechnology) and MapkapK2 (Upstate Biotechnology) whole protein as a substrate for phosphorylation in the presence of 1.4 uM final concentration ATP. Reactions are incubated at 30C for 2 hours and detection reagent is added in 2.5 ul/well amounts. Assay is read using a Perkin Elmer Viewlux.

T1 sequence (Q16539 whole entry): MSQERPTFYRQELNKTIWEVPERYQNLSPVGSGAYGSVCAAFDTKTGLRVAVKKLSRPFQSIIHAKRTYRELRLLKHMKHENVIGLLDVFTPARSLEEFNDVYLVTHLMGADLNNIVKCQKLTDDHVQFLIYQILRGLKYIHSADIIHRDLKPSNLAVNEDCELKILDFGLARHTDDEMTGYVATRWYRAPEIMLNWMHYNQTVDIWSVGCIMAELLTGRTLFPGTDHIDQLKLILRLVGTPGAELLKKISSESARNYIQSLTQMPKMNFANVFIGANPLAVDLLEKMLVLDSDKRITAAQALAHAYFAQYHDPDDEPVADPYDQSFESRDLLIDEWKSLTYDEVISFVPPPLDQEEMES

Row | IC50 [µM] | Structure (SMILES)
1 | ≤ 1 | CC(C)NC(=O)c1csc(-c2oc(CNC(=O)c3cccnc3Cl)nc2-c2ccc(F)cc2)n1 [Example 153]
2 | > 1 | CC(C)NC(=O)c1csc(-c2oc(CNC(=O)c3ccnc(Cl)c3)nc2-c2ccc(F)cc2)n1 [Example 154]
3 | > 1 | CC(C)NC(=O)c1csc(-c2oc(CNC(=O)c3cc(Cl)ccn3)nc2-c2ccc(F)cc2)n1 [Example 155]
4 | ≤ 1 | CC(C)NC(=O)c1csc(-c2oc(CNC(=O)c3ccncc3Cl)nc2-c2ccc(F)cc2)n1 [Example 156]
5 | ≤ 1 | CC(C)NC(=O)c1csc(-c2oc(CNC(=O)c3c(F)cccc3F)nc2-c2ccc(F)cc2)n1 [Example 157]
6 | ≤ 1 | CC(C)NC(=O)c1csc(-c2oc(CNC(=O)c3cccc(F)c3F)nc2-c2ccc(F)cc2)n1 [Example 158]
7 | ≤ 1 | CC(C)NC(=O)c1csc(-c2oc(CNC(=O)c3ccc(F)cc3F)nc2-c2ccc(F)cc2)n1 [Example 159]
8 | > 1 | CC(C)NC(=O)c1csc(-c2oc(CNC(=O)c3cc(F)cc(F)c3)nc2-c2ccc(F)cc2)n1 [Example 160]
9 | > 1 | CC(C)NC(=O)c1csc(-c2oc(CNC(=O)c3ccc(F)c(F)c3)nc2-c2ccc(F)cc2)n1 [Example 161]
10 | > 1 | CC(CC(=O)NCc1nc(-c2ccc(F)cc2)c(-c2nc(C(=O)NC(C)C)cs2)o1)CC(C)(C)C (centres unmarked) [Example 162]
11 | > 1 | CC(C)NC(=O)c1csc(-c2oc(CNC(=O)c3cc4ccccc4o3)nc2-c2ccc(F)cc2)n1 [Example 163]
12 | > 1 | CC(C)NC(=O)c1csc(-c2oc(CNC(=O)C3CCc4ccccc43)nc2-c2ccc(F)cc2)n1 (centres unmarked) [Example 164]
13 | > 1 | CC(C)NC(=O)c1csc(-c2oc(CNC(=O)C(Cl)(Cl)Cl)nc2-c2ccc(F)cc2)n1 [Example 165]
14 | ≤ 1 | CC(C)NC(=O)c1csc(-c2oc(CNC(=O)/C=C/c3ccccc3O)nc2-c2ccc(F)cc2)n1 [Example 166]
15 | ≤ 1 | CC(=O)c1ccc(C(=O)NCc2nc(-c3ccc(F)cc3)c(-c3nc(C(=O)NC(C)C)cs3)o2)cc1 [Example 167]
16 | ≤ 1 | CC(C)NC(=O)c1csc(-c2oc(CNC(=O)/C=C/c3cccc(O)c3)nc2-c2ccc(F)cc2)n1 [Example 168]
17 | > 1 | CC(=O)c1cccc(C(=O)NCc2nc(-c3ccc(F)cc3)c(-c3nc(C(=O)NC(C)C)cs3)o2)c1 [Example 169]
18 | > 1 | CC(=O)c1ccccc1C(=O)NCc1nc(-c2ccc(F)cc2)c(-c2nc(C(=O)NC(C)C)cs2)o1 [Example 170]
19 | > 1 | CC(C)NC(=O)c1csc(-c2oc(CNC(=O)c3ccc(C(C)C)cc3)nc2-c2ccc(F)cc2)n1 [Example 171]
20 | > 1 | Cc1ccccc1CCC(=O)NCc1nc(-c2ccc(F)cc2)c(-c2nc(C(=O)NC(C)C)cs2)o1 [Example 172]
21 | > 1 | Cc1cccc(CCC(=O)NCc2nc(-c3ccc(F)cc3)c(-c3nc(C(=O)NC(C)C)cs3)o2)c1 [Example 173]
22 | > 1 | CCC(C(=O)NCc1nc(-c2ccc(F)cc2)c(-c2nc(C(=O)NC(C)C)cs2)o1)c1ccccc1 (centres unmarked) [Example 174]
23 | > 1 | Cc1cc(C)c(C(=O)NCc2nc(-c3ccc(F)cc3)c(-c3nc(C(=O)NC(C)C)cs3)o2)c(C)c1 [Example 175]
24 | > 1 | CCCc1ccc(C(=O)NCc2nc(-c3ccc(F)cc3)c(-c3nc(C(=O)NC(C)C)cs3)o2)cc1 [Example 176]
25 | > 1 | CC(C)NC(=O)c1csc(-c2oc(CNC(=O)c3ccc4c(c3)OCO4)nc2-c2ccc(F)cc2)n1 [Example 177]
26 | ≤ 1 | CC(C)NC(=O)c1csc(-c2oc(CNC(=O)/C=C/c3ccccc3F)nc2-c2ccc(F)cc2)n1 [Example 178]
27 | > 1 | CCOc1ccccc1C(=O)NCc1nc(-c2ccc(F)cc2)c(-c2nc(C(=O)NC(C)C)cs2)o1 [Example 179]
28 | > 1 | Cc1ccccc1OCC(=O)NCc1nc(-c2ccc(F)cc2)c(-c2nc(C(=O)NC(C)C)cs2)o1 [Example 180]
29 | ≤ 1 | CC(C)NC(=O)c1csc(-c2oc(CNC(=O)CCc3ccccc3O)nc2-c2ccc(F)cc2)n1 [Example 181]
